Data on three molecules can be found in patent US20170107207A1, “AMINOPYRAZOLONE DERIVATIVE” (DAIICHI SANKYO COMPANY, LIMITED, priority 2014, published 2017).

Common to all, as to assay type: cell-based
Assay [1] concerns RKO. Put plainly: Cell growth inhibition test, RKO. Conditions: Homo sapiens, 72 h, Large intestine cancer, 3 days, CellTiter-Glo. On the procedure:
(§1) A cell growth inhibition test was carried out by treating a cultured cancer cell line with a test compound for a given period and then counting the number of viable cells by CellTiter-Glo Luminescent Cell Viability Assay (manufactured by Promega Corp.).
(§2) The following cells were inoculated to a 384-well plate containing the compound prepared in advance at predetermined concentrations. […]
(§3) The cells thus inoculated were cultured at 37° C. for 3 days under 5% CO2. […] Then, luminescence intensity was measured using a plate reader.
(§4) The number of viable cells and luminescence intensity have been confirmed to correlate with each other. Therefore, the rate of cell growth was calculated according to the following expression: Rate of cell growth (T/C %) of a test compound-supplemented well=100×[(B−C)/(A−C)] wherein A represents the luminescence intensity (final culture date) of a test compound-free well; B represents the luminescence intensity (final culture date) of a test compound-containing well; and C represents the luminescence intensity (day of cell inoculation) of a well at the start of contact of the cells with the test compound.
(§5) T/C % at the concentration of each of the serially diluted test compounds was determined. […]

Assay [2] concerns MV-4-11. Kind of assay: Cell growth inhibition test, MV-4-11. Conditions: Homo sapiens, MV4-11, 72 h; MV-4-11, Leukemia, 3 days, CellTiter-Glo. On the procedure: as §1, §2, §3, §4, §5
(Cellular ATP, detected with luciferase, serves as a proxy for viable cell number.)

In assay [3] the test system is SW620. Put plainly: Cell growth inhibition test, SW620. Conditions: Homo sapiens, SW-620, 72 h; SW620, Large intestine cancer, 3 days, CellTiter-Glo. On the procedure:
as §1, §2, §3, §4, §5

Assay [4] deals with BT-474. Kind of assay: Cell growth inhibition test, BT-474. Conditions: Homo sapiens, 72 h; BT-474, Breast cancer, 3 days, CellTiter-Glo. The protocol:
as §1, §2, §3, §4, §5

Assay [5] relates to U2 OS. Kind of assay: Cell growth inhibition test, U2 OS. Conditions: Homo sapiens, U2OS, 72 h, Bone and soft tissue tumor, 3 days, CellTiter-Glo. The protocol:
as §1, §2, §3, §4, §5

The test system of assay [6] is ES-2. Kind of assay: Cell growth inhibition test, ES-2. Conditions: Homo sapiens, 72 h; ES-2, Ovary cancer, 3 days, CellTiter-Glo. On the procedure: as §1, §2, §3, §4, §5
Assay [7] has as its system MDA-MB-231. Put plainly: Cell growth inhibition test, MDA-MB-231. Conditions: Homo sapiens, 72 h; MDA-MB-231, Breast cancer, 3 days, CellTiter-Glo. The protocol: as §1, §2, §3, §4, §5
In assay [8] the test system is 786-0. Kind of assay: Cell growth inhibition test, 786-0. As to conditions: Homo sapiens, 72 h; 786-0, Kidney cancer, 3 days, CellTiter-Glo. The protocol: as §1, §2, §3, §4, §5
The test system of assay [9] is HCC1954. Kind of assay: Cell growth inhibition test, HCC1954. As to conditions: Homo sapiens, 72 h; HCC1954, Breast cancer, 3 days, CellTiter-Glo. The protocol:
as §1, §2, §3, §4, §5

For assay [10], the system named is NALM-6. Kind of assay: Cell growth inhibition test, NALM-6. Conditions: Homo sapiens, 72 h; NALM-6, Leukemia, 3 days, CellTiter-Glo. On the procedure:
as §1, §2, §3, §4, §5

Assay [11] deals with CCRF-CEM. Kind of assay: Cell growth inhibition test, CCRF-CEM. Conditions: Homo sapiens, 72 h, Leukemia, 3 days, CellTiter-Glo. The protocol: as §1, §2, §3, §4, §5
The subject of assay [12] is KARPAS 422. Kind of assay: Cell growth inhibition test, KARPAS 422. Conditions: Homo sapiens, 72 h; KARPAS 422, Lymphoma, 3 days, CellTiter-Glo. The protocol:
as §1, §2, §3, §4, §5

Assay [13] has as its system RL952. Kind of assay: Cell growth inhibition test, RL952. As to conditions: Homo sapiens, RL95-2, 72 h; RL952, Endometrial cancer, 3 days, CellTiter-Glo. On the procedure:
as §1, §2, §3, §4, §5

For assay [14], the system named is PANC-1. Kind of assay: Cell growth inhibition test, PANC-1. Conditions: Homo sapiens, 72 h; PANC-1, Pancreatic cancer, 3 days, CellTiter-Glo. The protocol: as §1, §2, §3, §4, §5
Assay [15] relates to NCI-H146. Put plainly: Cell growth inhibition test, NCI-H146. As to conditions: Homo sapiens, 72 h; NCI-H146, Lung cancer, 3 days, CellTiter-Glo. The protocol: as §1, §2, §3, §4, §5
For assay [16], the system named is SJSA-1. Put plainly: Cell growth inhibition test, SJSA-1. As to conditions: Homo sapiens, 72 h; SJSA-1, Bone and soft tissue tumor, 3 days, CellTiter-Glo. On the procedure: as §1, §2, §3, §4, §5
Assay [17] relates to A549. Put plainly: Cell growth inhibition test, A549. Conditions: Homo sapiens, 72 h; A549, Lung cancer, 3 days, CellTiter-Glo. The protocol:
as §1, §2, §3, §4, §5

The subject of assay [18] is SW948. Put plainly: Cell growth inhibition test, SW948. Conditions: Homo sapiens, 72 h; SW948, Large intestine cancer, 3 days, CellTiter-Glo. On the procedure:
as §1, §2, §3, §4, §5

Assay [19] concerns A375. Kind of assay: Cell growth inhibition test, A375. As to conditions: Homo sapiens, A-375, 72 h; A375, Skin cancer, 3 days, CellTiter-Glo. On the procedure:
as §1, §2, §3, §4, §5

In the case of `CCOc1ccc(Cl)cc1C(=O)NCC(C)(C)CC(=O)Nc1c([C@H](C)CN(C)C)n(C)n(-c2ccccc2)c1=O` [Example 68, 5-Chloro-N-[4-({5-[(1R)-2-(dimethylamino)-1-methylethyl]-1-methyl-3-oxo-2-phenyl-2,3-dihydro-1H-pyrazol-4-yl}amino)-2,2-dimethyl-4-oxobutyl]-2-ethoxybenzamide], the GI50 (commonly the concentration at which growth is held to half of that of the control) was 240 nM in assay [1]; 210 nM in assay [2]; 840 nM in assay [3]; 1.9 µM in [4]; 530 nM in assay [5]; 480 nM in assay [6]. In addition, the GI50 in assay [7] amounted to 350 nM; in assay [8] it was 680 nM; in [9], 340 nM; in assay [10], 130 nM; in [11], 220 nM; in assay [12], 200 nM. The GI50 in assay [13] amounted to 530 nM; in assay [14], 900 nM; in assay [15], 1100 nM; in [16] it was 750 nM; in assay [17] it was 910 nM; in [18] it was 3.9 µM. This molecule also gave a 50% growth inhibitory concentration (GI50) in assay [19] of 280 nM.
`CCOc1cc(F)c(Cl)cc1C(=O)NCC(C)(C)CC(=O)Nc1c(COC)n(C)n(-c2ccccc2)c1=O` [Example 113, 5-Chloro-2-ethoxy-4-fluoro-N-(4-{[5-(methoxymethyl)-1-methyl-3-oxo-2-phenyl-2,3-dihydro-1H-pyrazol-4-yl]amino}-2,2-dimethyl-4-oxobutyl)benzamide]: the GI50 in assay [1] worked out at 310 nM; in assay [2], 400 nM; in assay [3] it was 910 nM; in [4] it was 25 µM; in assay [5] it was 640 nM; in assay [6], 750 nM. Further, the GI50 in assay [7] amounted to 770 nM; in [8] it was 320 nM; in assay [9], 720 nM; in assay [10] it was 270 nM; in [11] it was 530 nM; in [12], 450 nM. The GI50 in [13] turned out to be 870 nM; in [14], 1200 nM; in [15] it was 2000 nM; in assay [16], 870 nM; in [17] it was 1100 nM; in assay [18], 1.4 µM. This molecule yielded a concentration for 50% growth inhibition (GI50) in assay [19] of 260 nM.
In the case of `CCOc1ncc(Cl)cc1C(=O)NCC(C)(C)CC(=O)Nc1c([C@H](C)CN(C)C)n(C)n(-c2ccccc2)c1=O` [Example 73, 5-Chloro-N-[4-({5-[(1R)-2-(dimethylamino)-1-methylethyl]-1-methyl-3-oxo-2-phenyl-2,3-dihydro-1H-pyrazol-4-yl}amino)-2,2-dimethyl-4-oxobutyl]-2-ethoxypyridine-3-carboxamide], the concentration for 50% growth inhibition (GI50) in assay [1] was found to be 570 nM; in assay [2] it was 490 nM; in assay [3], 1600 nM; in assay [4], 5 µM; in assay [5], 920 nM; in assay [6], 900 nM. For the same molecule, the concentration for 50% growth inhibition (GI50) in assay [7] worked out at 890 nM; in assay [8], 920 nM; in assay [9], 920 nM; in assay [10], 330 nM; in assay [11], 590 nM; in [12] it was 350 nM. The concentration for 50% growth inhibition (GI50) stood at 890 nM in assay [13]; 2000 nM in assay [14]; 2700 nM in assay [15]; 1300 nM in assay [16]; 2000 nM in assay [17]; 4.2 µM in [18]. For the same molecule, halving of growth in [19] (GI50) required 560 nM.
